Data as given in patent US8623324B2, “Luminescent dyes with a water-soluble intramolecular bridge and their biological conjugates” (AAT Bioquest Inc., priority 2010, dated 2014).

Test system: goat anti-rabbit IgG (GAR)
Test: Protein precipitation / water solubility of dye-protein conjugates at high dye/protein ratio
Format: physicochemical
Text: FIG. 1. […] Their PBS solutions are adjusted to have the same absorption of OD=0.05 at 600 nm. The PBS solutions are excited at 600 nm, and the emissions are scanned from 620 to 800 nm.
FIG. 2. […] Their PBS solutions are adjusted to have the same absorption of OD=0.05 at 600 nm. The PBS solutions are excited at 600 nm, and the emissions are scanned from 620 to 800 nm.
FIG. 3. […] Their PBS solutions are adjusted to have the same absorption of OD=0.1 at 450 nm. The PBS solutions are excited at 460 nm, and the emissions are scanned from 470 to 650 nm.
The typical method for protein conjugation with succinimidyl esters of the invention is as follows. Variations in ratios of dye to protein, protein concentration, time, temperature, buffer composition and other variables that are well known in the art are possible that still yield useful conjugates. A solution of the protein is prepared at about 10 mg/mL in 0.1M sodium bicarbonate. The labeling reagents are dissolved in a suitable solvent such as DMF or DMSO at about 10 mg/mL. Water is a suitable solvent for many dyes of the invention. Predetermined amounts of the labeling reagents are added to the protein solutions with stiffing. A molar ratio of 10 equivalents of dye to 1 equivalent of protein is typical, though the optimal amount varies with the particular labeling reagent, the protein being labeled and the protein's concentration, and is determined empirically.

[1] = ratio of dye/protein larger than 8
[2] = ratio of dye/protein larger than 10

Compound	protein precipitation / water solubility of dye-protein conjugate [1]	protein precipitation / water solubility of dye-protein conjugate [2]
CC12CCCCCC(=O)NCCCCCNC(=O)C(CS(=O)(=O)O)NC(=O)C(CS(=O)(=O)O)NC(=O)C(CS(=O)(=O)O)NC(=O)CCCCCC3(C)/C(=C/C=C/C=C/C1=[N+](CCCCCC(=O)ON1C(=O)CCC1=O)c1ccc(S(=O)(=O)O)cc12)N(CCCCCC(=O)ON1C(=O)CCC1=O)c1ccc(S(=O)(=O)O)cc13 (stereo not shown) [Compound 39]	still water soluble	
CC1(C)C2=[N+](CCCCCC(=O)NC(C(=O)NCCCCCC(=O)ON3C(=O)CCC3=O)CCCCNC(=O)CCCCCC3(C)/C(=C/C=C/C=C/2)N(CCCS(=O)(=O)O)c2ccc(S(=O)(=O)O)cc23)c2ccc(S(=O)(=O)[O-])cc21 (stereo not shown) [Compound 133]		causes protein to precipitate
CC1(C)C2=[N+](CCCCCC(=O)NC(Cc3ccc(S(=O)(=O)O)s3)C(=O)NCCCCC(C(=O)NCCCCCC(=O)ON3C(=O)CCC3=O)NC(=O)C(Cc3ccc(S(=O)(=O)[O-])s3)NC(=O)CCCCCC3(C)/C(=C/C=C/C=C/2)N(CCCS(=O)(=O)O)c2ccc(S(=O)(=O)O)cc23)c2ccc(S(=O)(=O)O)cc21 (stereo not shown) [Compound 134]		still water soluble
CC12CCCCCC(=O)NCCCCCCCCCCCCNC(=O)CCCCCC3(C)/C(=C/C=C/C=C/C1=[N+](CCCCCC(=O)ON1C(=O)CCC1=O)c1ccc(S(=O)(=O)O)cc12)N(CCCCCC(=O)ON1C(=O)CCC1=O)c1ccc(S(=O)(=O)O)cc13 (stereo not shown) [Compound 136]	causes protein to precipitate	
